Results: US4108857A, “Imidazolylmethyl methanobenzazocines” (Sterling Drug Inc., priority 1977, dated 1978)
Converted amounts (≈) assume the structure as drawn. Counter-ions that a name gives are not always drawn.

Legend:
[1] = solubility in 95 percent ethyl alcohol; conditions: for solubility: 95% ethanol, organic solvent or mixture
[2] = precipitation on diluting ethyl alcohol solution with four volumes of water; format: physicochemical; conditions: 5 percent (w/v) solution in 95 percent ethyl alcohol
[3] = solubility in water or aqueous acid; conditions: for solubility: water
pH of solution = format: physicochemical; conditions: for pH of 1 percent aqueous solution: 1 percent solution (Example 26 as dihydrochloride, Example 32 as such, others as hydrochloride)
[4] = system: maximal electroshock seizures; test: anti-maximal electroshock seizure test in mice; format: in vivo
Procedure: The preferred species of this invention, i.e. the compounds having in free base form Formula II, are useful as analgesic agents administered orally or parenterally to humans. […] In the anti-maximal electroshock seizure test, the compounds were administered intraperitoneally or perorally 30 or 90 minutes prior to the application of 50 milliamperes of alternating current through corneal electrodes. Shock duration was 0.3 second. The criterion for anticonvulsant activity was the absence of the tonic hind leg extensor component of the seizure. In the anti-maximal pentylenetetrazol seizure test, the compounds were given intraperitoneally 30 or 90 minutes prior to the rapid intravenous injection of 50 mg. per kg. of pentylenetetrazol. Failure to display tonic hind leg extensor seizures was again the criterion for drug action. Representative results, expressed as ED50 (mg./kg.), which were obtained with my new compounds in these two tests are as follows: […]

[5] = system: maximal pentylenetetrazol seizures; test: anti-maximal pentylenetetrazol seizure test in mice; format: in vivo; conditions: for ED50: Mus musculus
[6] = precipitation on gradual pH adjustment of the aqueous solution; format: physicochemical; conditions: for pH at which a precipitate formed: addition of N/10 sodium hydroxide solution to aqueous solution of hydrochloride; for precipitation on adjusting to pH 7.0: 1 percent solution
mice = test: inclined screen test in mice (skeletal muscle relaxation); format: in vivo; conditions: 100 mg./kg. subcutaneously, mice
humans = test: analgesic use in humans; format: in vivo
Procedure: For example, administered orally, the effective dosage of the racemic cis form of this compound in humans has been determined to be about 0.1 to 0.5 mg. of drug per kg. of body weight per day, at 5-25 mg. per dose; preferably about 0.2 to 0.4 mg./kg./day, for instance a total of […] at 20 mg./dose.

[7] = one entry spanning PO 30' and 90'

Compound: CC1[C@@H]2Cc3ccccc3[C@@]1(C)CCN2CC1CCC1 (mixture of isomers) [Example 4, racemic 1,2,3,4,5,6-hexahydro-3-cyclobutylmethyl-cis-6,11-dimethyl-2,6-methano-3-benzazocine]
- solubility of hydrochloride in 95 percent ethyl alcohol [1]: 5 percent (w/v)
- precipitation on dilution with four volumes of water [2]: no precipitate formed
- solubility of hydrochloride in water ([3]; hydrochloride): less than 0.25%
- pH of ethyl alcohol solution diluted with four volumes of water (pH of solution; hydrochloride, 5 percent (w/v) in 95 percent ethyl alcohol, then diluted): 6.1
- Anti-Maximal Electroshock ED50 ([4]; IP, 30', 30 min): 30.5 ± 5.8 mg/kg
- Anti-Maximal Electroshock ED50 ([4]; IP, 90'): INACT.
- Anti-Maximal Electroshock ED50 [4, 7]: inact.
- Anti-Maximal Pentylenetetrazol ED50 ([5]; IP, 30', 30 min): 13.2 ± 3 mg/kg
- Anti-Maximal Pentylenetetrazol ED50 ([5]; IP, 90', 90 min): 26.2 ± 8.1 mg/kg
- Anti-Maximal Pentylenetetrazol ED50 ([5]; PO, 30'): INACT.
- Anti-Maximal Pentylenetetrazol ED50 ([5]; PO, 90', 90 min): 25.8 ± 7 mg/kg

Compound: C[C@@H]1[C@H]2Cc3ccccc3[C@]1(C)CCN2CC1CC1 (relative stereo) [Example 2, racemic 1,2,3,4,5,6-hexahydro-3-cyclopropylmethyl-trans-6,11-dimethyl-2,6-methano-3-benzazocine]
- solubility [1]: < 10 mg/mL
- solubility [3]: < 2.5 mg/mL

Compound: CC[C@]12CCN(CC3CC3)[C@H](Cc3ccccc31)[C@@H]2C (relative stereo) [Example 3, 1,2,3,4,5,6-hexahydro-3-cyclopropylmethyl-cis-(6-ethyl-11-methyl)-2,6-methano-3-benzazocine]
- solubility [3]: 200 mg/mL (≈ 742 mM)
- pH of 1 percent aqueous solution (pH of solution): 5.6
- pH at which a precipitate formed [6]: 6.5

Compound: C[C@H]1[C@H]2Cc3ccccc3[C@]1(C)CCN2CC1CC(C)(C)C1 (relative stereo) [Example 5, racemic 1,2,3,4,5,6-hexahydro-3-(3,3-dimethylcyclobutylmethyl)-cis-6,11-dimethyl-2,6-methano-3-benzazocine]
- solubility [1]: 50 mg/mL (≈ 168 mM)
- precipitation on dilution with four volumes of water [2]: a precipitate formed
- solubility [3]: 5 mg/mL (≈ 16.8 mM)
- pH of 0.5 percent aqueous solution (pH of solution; hydrochloride, 0.5 percent): 6.8
- pH at which a precipitate formed [6]: 6.8

Compound: C[C@H]1[C@H]2Cc3ccccc3[C@]1(C)CCN2CC1CCCC1 (relative stereo) [Example 6, racemic 1,2,3,4,5,6-hexahydro-3-cyclopentylmethyl-cis-6,11-dimethyl-2,6-methano-3-benzazocine]
- solubility [3]: 10 mg/mL (≈ 35.3 mM)
- pH of 1 percent aqueous solution (pH of solution): 6.2
- Anti-Maximal Electroshock ED50 ([4]; one entry spanning PO and IP, 30' and 90'): INACTIVE
- pH at which a precipitate formed [6]: 6.3
- ED50 ([5]; 0.5 h, IP, 30'): 11.7 ± 2 mg/kg
- ED50 ([5]; 1.5 h, IP, 90'): 8 ± 3 mg/kg
- Anti-Maximal Pentylenetetrazol ED50 [5, 7]: INACTIVE

Compound: CC(C)=CCN1CC[C@@]2(C)c3ccccc3C[C@@H]1[C@@H]2C (relative stereo) [Example 10, racemic 1,2,3,4,5,6-hexahydro-3-(3-methyl-2-butenyl)-cis-6,11-dimethyl-2,6-methano-3-benzazocine]
- solubility [3]: 200 mg/mL (≈ 742 mM)
- pH of 1 percent aqueous solution (pH of solution): 6.1
- precipitation on adjusting to pH 7.0 ([6]; N/10 sodium hydroxide solution): no precipitate was formed

Compound: C[C@H]1[C@H]2Cc3ccccc3[C@]1(C)CCN2CCC(=O)O (relative stereo) [Example 24, racemic 1,2,3,4,5,6-hexahydro-3-(2-carboxyethyl)-cis-6,11-dimethyl-2,6-methano-3-benzazocine hydrochloride]
- solubility [3]: 100 mg/mL
- pH of 1 percent aqueous solution (pH of solution): 3.0
- precipitation on adjusting to pH 7.0 ([6]; N/10 sodium hydroxide solution): no precipitate formed

Compound: C[C@H]1[C@H]2Cc3ccccc3[C@]1(C)CCN2CCCN (relative stereo) [Example 26, racemic 1,2,3,4,5,6-hexahydro-3-(3-aminopropyl)-cis-6,11-dimethyl-2,6-methano-3-benzazocine]
- solubility [3]: 200 mg/mL (≈ 774 mM)
- pH of 1 percent aqueous solution (pH of solution): 6.6
- precipitation on adjusting to pH 7.0 ([6]; N/10 sodium hydroxide solution): no precipitate was formed

Compound: C[C@H]1[C@H]2Cc3ccccc3[C@]1(C)CCN2CCc1c[nH]c2ccccc12 (relative stereo) [Example 30, racemic 1,2,3,4,5,6-hexahydro-3-[2-(3-indolyl)ethyl]-cis-6,11-dimethyl-2,6-methano-3-benzazocine]
- solubility of hydrochloride in 95 percent ethyl alcohol [1]: less than one
- solubility [3]: < 2.5 mg/mL

Compound: CCCCNC(=O)N1CC[C@@]2(C)c3ccccc3C[C@@H]1[C@@H]2C (relative stereo) [Example 32, racemic 1,2,3,4,5,6-hexahydro-3-(n-butylcarbamyl)-cis-6,11-dimethyl-2,6-methano-3-benzazocine]
- solubility [3]: 200 mg/mL (≈ 666 mM)
- pH of 1 percent aqueous solution (pH of solution): 9.2
- precipitation on adjusting to pH 7.0 ([6]; N/10 hydrochloric acid solution): no precipitate was formed

Compound: C[C@H]1[C@H]2Cc3ccccc3[C@]1(C)CCN2C(=O)c1cccnc1 (relative stereo) [Example 34, racemic 1,2,3,4,5,6-hexahydro-3-nicotinoyl-cis-6,11-dimethyl-2,6-methano-3-benzazocine]
- solubility [3]: 200 mg/mL (≈ 653 mM)
- pH of 1 percent aqueous solution (pH of solution): 2.7
- pH at which a precipitate formed [6]: 3.0

Compound: C[C@H]1[C@H]2Cc3ccccc3[C@]1(C)CCN2Cc1cncn1C (relative stereo) [Example 37, racemic 1,2,3,4,5,6-hexahydro-3-(1-methylimidazol-5-yl)methyl-cis-6,11-dimethyl-2,6-methano-3-benzazocine]
- solubility [1]: 50 mg/mL (≈ 169 mM)
- precipitation on dilution with four volumes of water [2]: precipitated
- solubility [3]: < 2.5 mg/mL
- side-effect in the inclined screen test (mice): CNS stimulation
- skeletal muscle relaxant activity in the inclined screen test (mice; 30 or 60 minutes): active

Compound: COC(CN1CC[C@@]2(C)c3ccccc3C[C@@H]1[C@@H]2C)OC (relative stereo) [Example 39, racemic 1,2,3,4,5,6-hexahydro-3-(2,2-dimethoxyethyl)cis-6,11-dimethyl-2,6-methano-3-benzazocine]
- solubility [3]: 200 mg/mL (≈ 691 mM)
- pH of 1 percent aqueous solution (pH of solution): 5.9
- precipitation on adjusting to pH 7.0 ([6]; N/10 sodium hydroxide solution): no precipitate formed

Compound: CC[C@H]1[C@H]2Cc3ccccc3[C@]1(C)CCN2C (relative stereo) [racemic 1,2,3,4,5,6-hexahydro-3-methyl-cis-(6-methyl-11-ethyl)-2,6-methano-3-benzazocine]
- solubility [3]: 50 mg/mL (≈ 218 mM)
- pH of 1 percent aqueous solution (pH of solution): 6.7
- precipitation on adjusting to pH 7.0 ([6]; N/10 sodium hydroxide solution): no precipitate formed

Compound: CC1C2Cc3ccc(O)cc3C1(C)CCN2CC1CC1 (stereo not drawn) [1,2,3,4,5,6-hexahydro-3-cyclopropylmethyl-8-hydroxy-6,11-dimethyl-2,6-methano-3-benzazocine, reference compound]
- psychotomimetic effects in humans (humans; analgesically effective doses): significant incidence of psychotomimetic effects
- analgesic activity in humans (humans; humans): potent analgesic

Compound: C[C@H]1[C@H]2Cc3ccccc3[C@]1(C)CCN2CC1CCCO1 (stereo partly drawn) [Example 28, 1,2,3,4,5,6-hexahydro-3-(tetrahydro-2-furylmethyl)-cis-6,11-dimethyl-2,6-methano-3-benzazocine]
- solubility [1]: 50 mg/mL (≈ 175 mM)
- solubility [3]: < 2.5 mg/mL
